Experiments:
[1] = tested on: Monographella nivalis (Microdochium nivale); test: Monographella nivalis (Microdochium nivale) / liquid culture (foot rot cereals); format: cell-based; details: PDB, 24° C., 4-5 days after application, read-out: control of Monographella nivalis (inhibition of growth, photometric)
Procedure: (§1) Monographella nivalis (Microdochium nivale)/Liquid Culture (Foot Rot Cereals): Conidia of the fungus from cryogenic storage were directly mixed into nutrient broth (PDB potato dextrose broth). After placing a DMSO solution of test compound into a 96-well microtiter plate at an application rate of 200 ppm, the nutrient broth containing the fungal spores was added. The test plates were incubated at 24° C. and the inhibition of growth was determined photometrically 4-5 days after application.

[2] = tested on: Puccinia recondita f. sp. Tritici; test: Puccinia recondita f. sp. tritici / wheat / leaf disc preventative (brown rust); format: in vivo; details: foliar, wheat leaf segments cv Kanzler, inoculated 1 day after application, assessed 7-9 days after application, read-out: control of Puccinia recondita f. sp. Tritici (percent disease control compared to untreated)
Procedure: Puccinia recondita f. Sp. Tritici/Wheat/Leaf Disc Preventative (Brown Rust): Wheat leaf segments cultivated variety (cv) Kanzler were placed on agar in 24-well plates and sprayed with formulated test compound diluted in water at an application rate of 200 ppm. The leaf disks were inoculated with a spore suspension of the fungus 1 day after application. The inoculated leaf segments were incubated at 19° C. and 75% relative humidity under a light regime of 12/12 h (light/dark) in a climate cabinet and the activity of a compound was assessed as percent disease control compared to untreated when an appropriate level of disease damage appears in untreated check leaf segments (7-9 days after application).

[3] = tested on: Botryotinia fuckeliana (Botrytis cinerea); test: Botryotinia fuckeliana (Botrytis cinerea) / liquid culture (gray mould); format: cell-based; details: Vogels broth, 24° C., 3-4 days after application, read-out: control of Botryotinia fuckeliana (inhibition of growth, photometric)
Procedure: as §1, with “Botryotinia Fuckeliana (Botrytis cinerea)/Liquid” for “Monographella nivalis (Microdochium nivale)/Liquid”, “(Gray Mould):” for “(Foot Rot Cereals):”, “(Vogels” for “(PDB potato dextrose”, “3-4” for “4-5”

[4] = tested on: Thanatephorus cucumeris (Rhizoctonia solani); test: Thanatephorus cucumeris (Rhizoctonia solani) / liquid culture (foot rot, damping-off); format: cell-based; details: PDB, 24° C., 3-4 days after application, read-out: control of Thanatephorus cucumeris (inhibition of growth, photometric)
Procedure: Thanatephorus cucumeris (Rhizoctonia solani)/Liquid Culture (Foot Rot, Damping-Off): Mycelia fragments of a newly grown liquid culture of the fungus are directly mixed into nutrient broth (PDB potato dextrose broth). After placing a DMSO solution of the test compounds into a 96-well microtiter plate at an application rate of 200 ppm, the nutrient broth containing the fungal material was added. The test plates were incubated at 24° C. and the inhibition of growth was determined photometrically 3-4 days after application.

[5] = tested on: Mycosphaerella graminicola (Septoria tritici); test: Mycosphaerella graminicola (Septoria tritici) / liquid culture (Septoria blotch); format: cell-based; details: Zymoseptoria tritici, PDB, 24° C., 4-5 days after application, read-out: control of Mycosphaerella graminicola (inhibition of growth, photometric)
Procedure: as §1, with “Mycosphaerella graminicola (Septoria tritici)/Liquid” for “Monographella nivalis (Microdochium nivale)/Liquid”, “(Septoria Blotch):” for “(Foot Rot Cereals):”

Gaeumannomyces graminis = Gaeumannomyces graminis / liquid culture (take-all of cereals); format: cell-based; details: PDB, 24° C., 4-5 days after application, read-out: control of Gaeumannomyces graminis (inhibition of growth, photometric)
Procedure: Gaeumannomyces graminis/Liquid Culture (Take-all of Cereals): Mycelial fragments of the fungus from cryogenic storage were directly mixed into nutrient broth (PDB potato dextrose broth). After placing a DMSO solution of test compound into a 96-well microtiter plate at an application rate of 200 ppm, the nutrient broth […], containing the fungal spores is added. The test plates were incubated at 24° C. and the inhibition of growth was determined photometrically 4-5 days after application.

Pyrenophora teres = Pyrenophora teres / barley / leaf disc preventative (net blotch); format: in vivo; details: foliar, barley leaf segments cv Hasso, inoculated two days after application, assessed 5-7 days after application, read-out: control of Pyrenophora teres (disease control compared to untreated)
Procedure: Pyrenophora Teres/Barley/Leaf Disc Preventative (Net Blotch): Barley leaf segments cv Hasso are placed on agar in a 24-well plate and sprayed with formulated test compound diluted in water at an application rate of 200 ppm. The leaf segments are inoculated with a spore suspension of the fungus two days after application of the test solution. The inoculated leaf segments are incubated at 20° C. and 65% relative humidity under a light regime of 12/12 h (light/dark) in a climate cabinet and the activity of a compound is assessed as disease control compared to untreated when an appropriate level of disease damage appears in untreated check leaf segments (5-7 days after application).

[6] = tested on: Glomerella lagenarium (Colletotrichum lagenarium); test: Glomerella lagenarium (Colletotrichum lagenarium) / liquid culture (anthracnose); format: cell-based; details: Colletotrichum orbiculare, PDB, 24° C., 3-4 days after application, read-out: control of Glomerella lagenarium (inhibition of growth, photometric)
Procedure: as §1, with “Glomerella lagenarium (Colletotrichum lagenarium)/Liquid” for “Monographella nivalis (Microdochium nivale)/Liquid”, “(Anthracnose):” for “(Foot Rot Cereals):”, “is measured” for “was determined”, “3-4” for “4-5”

CCn1c(-n2ncnc2N)nc2cncc(-c3cccc(Cl)c3Cl)c21 [Compound 87, 2-[7-(2,3-dichlorophenyl)-1-ethylimidazo[4,5-c]pyridin-2-yl]-1,2,4-triazol-3-amine]
≥ 80%: inhibition at 20 ppm [1] | pest or weed control at 200 ppm [2] | inhibition at 20 ppm [3] | inhibition at 20 ppm [4] | inhibition at 20 ppm [5] | inhibition at 20 ppm (Gaeumannomyces graminis) | pest or weed control at 200 ppm (Pyrenophora teres)

CCn1c(-n2ncnc2N)nc2cncc(-c3ccc(OC)cc3OC)c21 [Compound 81, 2-[7-(2,4-dimethoxyphenyl)-1-ethylimidazo[4,5-c]pyridin-2-yl]-1,2,4-triazol-3-amine]
≥ 80%: inhibition at 20 ppm [1] | pest or weed control at 200 ppm [2] | inhibition at 20 ppm [3] | inhibition at 20 ppm [4] | inhibition at 20 ppm [5] | inhibition at 20 ppm (Gaeumannomyces graminis) | pest or weed control at 200 ppm (Pyrenophora teres)

CCCn1c(-n2ncnc2N)nc2cncc(C#N)c21 [Compound 129, 2-(5-amino-1,2,4-triazol-1-yl)-1-propylimidazo[4,5-c]pyridine-7-carbonitrile]
≥ 80%: inhibition at 20 ppm [6]

CCn1c(-n2ncnc2N)nc2cncc(-c3ccc(OC)nc3OC)c21 [Compound 56, 2-[7-(2,6-dimethoxypyridin-3-yl)-1-ethylimidazo[4,5-c]pyridin-2-yl]-1,2,4-triazol-3-amine]
≥ 80%: pest or weed control at 200 ppm [2] | inhibition at 20 ppm [3] | inhibition at 20 ppm [4] | inhibition at 20 ppm [5] | pest or weed control at 200 ppm (Pyrenophora teres)

CCCn1c(-n2ncnc2N)nc2cncc(/C(C)=N/OCC=C(Cl)Cl)c21 [Compound 187]
≥ 80%: pest or weed control at 200 ppm [2] | inhibition at 20 ppm [4] | inhibition at 20 ppm [5] | inhibition at 20 ppm (Gaeumannomyces graminis)

CCCn1c(-n2ncnc2N)nc2cncc(/C(C)=N/OC/C=C/Cl)c21 [Compound 183]
≥ 80%: inhibition at 20 ppm [1] | pest or weed control at 200 ppm [2] | inhibition at 20 ppm [3] | inhibition at 20 ppm [4] | inhibition at 20 ppm [5] | inhibition at 20 ppm (Gaeumannomyces graminis) | pest or weed control at 200 ppm (Pyrenophora teres)

CCn1c(-n2ncnc2N)nc2cncc(-c3ccc(F)cc3OC)c21 [Compound 95, 2-[1-ethyl-7-(4-fluoro-2-methoxyphenyl)imidazo[4,5-c]pyridin-2-yl]-1,2,4-triazol-3-amine]
≥ 80%: inhibition at 20 ppm [1] | pest or weed control at 200 ppm [2] | inhibition at 20 ppm [4] | inhibition at 20 ppm [5] | inhibition at 20 ppm (Gaeumannomyces graminis)

CCn1c(-n2ncnc2N)nc2cncc(/C(C)=N/OCC=C(C)C)c21 [Compound 157]
≥ 80%: pest or weed control at 200 ppm [2] | inhibition at 20 ppm [4] | inhibition at 20 ppm [5] | pest or weed control at 200 ppm (Pyrenophora teres) | inhibition at 20 ppm [6]

CCCn1c(-n2ncnc2N)nc2cncc(/C(C)=N/OCC=C(C)C)c21 [Compound 189]
≥ 80%: inhibition at 20 ppm [1] | pest or weed control at 200 ppm [2] | inhibition at 20 ppm [4] | inhibition at 20 ppm [5]

CCCCCCO/N=C(\C)c1cncc2nc(-n3ncnc3N)n(CC)c12 [Compound 148]
≥ 80%: inhibition at 20 ppm [4] | inhibition at 20 ppm [5] | pest or weed control at 200 ppm (Pyrenophora teres) | inhibition at 20 ppm [6]

CCCn1c(-n2ncnc2N)nc2cncc(/C(C)=N/OC/C=C(\C)Cl)c21 [Compound 185]
≥ 80%: inhibition at 20 ppm [1] | inhibition at 20 ppm [3] | inhibition at 20 ppm [4] | inhibition at 20 ppm [5] | pest or weed control at 200 ppm (Pyrenophora teres)

CCn1c(-n2ncnc2N)nc2cncc(C#N)c21 [Compound 128, 2-(5-amino-1,2,4-triazol-1-yl)-1-ethylimidazo[4,5-c]pyridine-7-carbonitrile]
≥ 80%: inhibition at 20 ppm [4] | inhibition at 20 ppm (Gaeumannomyces graminis)

N#Cc1cncc2nc(-n3ncnc3N)n(C3CCCCC3)c12 [Compound 131, 2-(5-amino-1,2,4-triazol-1-yl)-1-cyclohexylimidazo[4,5-c]pyridine-7-carbonitrile]
≥ 80%: inhibition at 20 ppm [6]

CCn1c(-n2ncnc2N)nc2cncc(-c3cccc(C)c3C)c21 [Compound 82, 2-[7-(2,3-dimethylphenyl)-1-ethylimidazo[4,5-c]pyridin-2-yl]-1,2,4-triazol-3-amine]
≥ 80%: pest or weed control at 200 ppm [2] | inhibition at 20 ppm [3] | inhibition at 20 ppm [4] | inhibition at 20 ppm [5] | inhibition at 20 ppm (Gaeumannomyces graminis) | pest or weed control at 200 ppm (Pyrenophora teres)

Nc1ncnn1-c1nc2cnccc2n1C1CC1 [Compound 1, 2-(1-cyclopropylimidazo[4,5-c]pyridin-2-yl)-1,2,4-triazol-3-amine]
≥ 80%: inhibition at 20 ppm [3] | inhibition at 20 ppm [4] | inhibition at 20 ppm [5] | inhibition at 20 ppm (Gaeumannomyces graminis) | pest or weed control at 200 ppm (Pyrenophora teres)

C/C=C/CO/N=C(\C)c1cncc2nc(-n3ncnc3N)n(CC)c12 [Compound 177]
≥ 80%: inhibition at 20 ppm [1] | inhibition at 20 ppm [3] | inhibition at 20 ppm [4] | inhibition at 20 ppm [5]

CCn1c(-n2ncnc2N)nc2cncc(-c3cccc(Cl)c3C)c21 [Compound 99, 2-[7-(3-chloro-2-methylphenyl)-1-ethylimidazo[4,5-c]pyridin-2-yl]-1,2,4-triazol-3-amine]
≥ 80%: pest or weed control at 200 ppm [2] | inhibition at 20 ppm [3] | inhibition at 20 ppm [4] | inhibition at 20 ppm [5] | inhibition at 20 ppm (Gaeumannomyces graminis) | pest or weed control at 200 ppm (Pyrenophora teres)

CCn1c(-n2ncnc2N)nc2cncc(-c3ccc(F)cc3C)c21 [Compound 92, 2-[1-ethyl-7-(4-fluoro-2-methylphenyl)imidazo[4,5-c]pyridin-2-yl]-1,2,4-triazol-3-amine]
≥ 80%: inhibition at 20 ppm [3] | inhibition at 20 ppm [4] | inhibition at 20 ppm [5] | inhibition at 20 ppm (Gaeumannomyces graminis) | pest or weed control at 200 ppm (Pyrenophora teres)

Nc1ncnn1-c1nc2cncc(-c3ccccc3F)c2n1C1CCCCC1 [Compound 127, 2-[1-cyclohexyl-7-(2-fluorophenyl)imidazo[4,5-c]pyridin-2-yl]-1,2,4-triazol-3-amine]
≥ 80%: inhibition at 20 ppm (Gaeumannomyces graminis)

From US9512120B2, “Microbicidally active imidazopyridine derivatives” (Syngenta Participations AG, priority 2013, dated 2016)
